In patent US10767212B2, “Method of screening compounds” (Cornell University, priority 2016, dated 2020):
Where a chain is given by its changes, count along the chain named. In names and notes the source's numbering stands. Several values for one entry are separate records, joined by “and”; a condition that tells them apart may be missing. Equal values may be shown once. Read-outs that look alike come from different tables or passages of the source. Values belong to the molecule of their own block, whether it stands above or below them.

How the values were obtained:
[1] = molecular target: T1, GACF327W (Mus musculus, UniProt D3Z7P3, F327W); conditions: for enhancement of the tryptophan fluorescence of the F327W mutant: addition of anionic activator, 50 mM anion, 400 nM F327W in FIG. 10A
T1 sequence (D3Z7P3 73-603 isoform D3Z7P3-2 F327W): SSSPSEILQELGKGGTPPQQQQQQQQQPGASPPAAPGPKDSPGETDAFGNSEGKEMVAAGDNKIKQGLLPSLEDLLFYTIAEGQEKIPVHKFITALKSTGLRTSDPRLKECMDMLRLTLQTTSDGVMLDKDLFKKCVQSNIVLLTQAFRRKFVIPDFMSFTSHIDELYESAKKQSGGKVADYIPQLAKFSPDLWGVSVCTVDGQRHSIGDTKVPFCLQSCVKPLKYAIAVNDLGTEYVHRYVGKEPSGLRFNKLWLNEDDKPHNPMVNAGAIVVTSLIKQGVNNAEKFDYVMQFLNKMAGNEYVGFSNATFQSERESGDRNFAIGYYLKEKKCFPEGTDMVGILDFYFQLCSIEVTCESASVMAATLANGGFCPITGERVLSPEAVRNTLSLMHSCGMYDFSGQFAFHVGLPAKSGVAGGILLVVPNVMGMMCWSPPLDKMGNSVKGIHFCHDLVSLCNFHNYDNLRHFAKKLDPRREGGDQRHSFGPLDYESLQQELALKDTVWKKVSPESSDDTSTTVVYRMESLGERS

[2] = molecular target: T2, GAC tetramers (Mus musculus, UniProt D3Z7P3); conditions: for FRET signal (GAC tetramer formation): 25 nM 488-labeled GAC, 75 nM QSY9-GAC; for reversibility of bound GAC tetramers: after addition of excess unlabeled GAC subunits
T2 sequence (D3Z7P3 73-603 isoform D3Z7P3-2): T1 sequence (D3Z7P3 73-603 isoform D3Z7P3-2 F327W) with W255F

[3] = molecular target: T3, GAC (Mus musculus, UniProt D3Z7P3); assay: Real-time NADH fluorescence assay of GAC activity; type: biochemical; parameters: residues 73-603) was cloned into a pET28a vector; His tag with thrombin cleavage site (N); made in house; conditions: 1 μM inhibitor, 10 nM GAC, 20 mM glutamine, 100 mM HPO4^2−
T3 sequence (D3Z7P3 73-603 isoform D3Z7P3-2): T1 sequence (D3Z7P3 73-603 isoform D3Z7P3-2 F327W) with W255F
Source text: FIG. 4A is a spectra of real-time NADH assays of GAC activity, in which the increased NADH fluorescence (in arbitrary units (AU)) results from the coupled reaction where GAC catalyzes glutamate production, and GDH converts glutamate to α-ketoglutarate and NAD to NADH. […] FIG. 4B is a graph of relative glutaminase activity. […] Error bars represent the standard deviation of three independent experiments.

[4] = molecular target: T1, GACF327W; assay: biochemical; conditions: KD from fluorescence quenching of the GACF327W mutant, 100 nM GACF327W; fit to a bimolecular interaction equation
[5] = molecular target: T3, GAC; assay: biochemical
[6] = molecular target: T4, WT GAC (Mus musculus, UniProt D3Z7P3); conditions: 5 mg/ml WT GAC; 50 mM anion in the running buffer
T4 sequence (D3Z7P3 73-603 isoform D3Z7P3-2): T1 sequence (D3Z7P3 73-603 isoform D3Z7P3-2 F327W) with W255F

[7] = molecular target: T3, GAC; conditions: for Kd: read-out: KD values from glutaminase activity with increasing concentrations of anion, 50 nM WT GAC, allosteric activation
[8] = Catalytic properties of GAC proteins (phosphate-stimulated glutaminase activity); type: biochemical, mouse

change in tryptophan fluorescence of GACF327W upon addition of inhibitor ([1]; 1 μM BPTES in FIG. 6B, increasing concentrations in FIGS. 8A-B): dose-dependent quenching
binding kinetics (comparison) ([1]; real-time F327W fluorescence): slower binding kinetics than BPTES
FRET signal (GAC tetramer formation) ([2]; 500 nM inhibitor): rapidly increases the FRET signal
reversibility of bound GAC tetramers [2]: resistant to dissociation
inhibition of phosphate-stimulated GAC activity (initial rate analysis) [3]: stronger inhibition
Kd [4]: 0.034 µM and 0.03 µM
IC50 [5]: 0.023 ± 0.001 µM
Molecule: O=C(Cc1cccc(OC(F)(F)F)c1)Nc1ccc(CCCCc2nnc(NC(=O)Cc3ccccn3)s2)nn1 [CB-839]

enhancement of the tryptophan fluorescence of the F327W mutant [1]: 25%
FRET signal (GAC tetramer formation) ([2]; 100 mM anion): rapidly increases the FRET signal
reversibility of bound GAC tetramers [2]: readily reversible
oligomer size from molecular weight distribution [6]: greater than 32 mers
Kd [7]: 20600 ± 400 µM
Molecule: O=P(O)(O)O [inorganic phosphate]

Molecule: O=S(=O)(O)O [sulfate]
enhancement of the tryptophan fluorescence of the F327W mutant [1]: 15%
FRET signal (GAC tetramer formation) ([2]; 100 mM anion): rapidly increases the FRET signal
reversibility of bound GAC tetramers [2]: readily reversible
Kd [7]: 36400 ± 3000 µM
effectiveness in activating GAC relative to phosphate ([7]; relative to phosphate (HPO4^2−)): −50%

B1: WT GAC: recombinant wild-type mouse glutaminase C, NP_001106854.1, residues 73-603 (protein)
chain: T1 sequence (D3Z7P3 73-603 isoform D3Z7P3-2 F327W) with W255F
modifications: left off: small tags and cut ends
Km [8]: 16.4 ± 0.4 mM
Vmax [8]: 453 ± 8 µmol/min

B2: GACF327W: mutant mouse GLS protein (GAC) with phenylalanine to tryptophan substitution at position 327 (protein)
chain: MMRLRGSAMLRELLLRPPAAVGAVLRRAQPLGTLCRRPRGGSRPTAGLVAAARLHPWWGGGGRAKGPGAGGLSSSPSEILQELGKGGTPPQQQQQQQQQPGASPPAAPGPKDSPGETDAFGNSEGKEMVAAGDNKIKQGLLPSLEDLLFYTIAEGQEKIPVHKFITALKSTGLRTSDPRLKECMDMLRLTLQTTSDGVMLDKDLFKKCVQSNIVLLTQAFRRKFVIPDFMSFTSHIDELYESAKKQSGGKVADYIPQLAKFSPDLWGVSVCTVDGQRHSIGDTKVPFCLQSCVKPLKYAIAVNDLGTEYVHRYVGKEPSGLRFNKLWLNEDDKPHNPMVNAGAIVVTSLIKQGVNNAEKFDYVMQFLNKMAGNEYVGFSNATFQSERESGDRNFAIGYYLKEKKCFPEGTDMVGILDFYFQLCSIEVTCESASVMAATLANGGFCPITGERVLSPEAVRNTLSLMHSCGMYDFSGQFAFHVGLPAKSGVAGGILLVVPNVMGMMCWSPPLDKMGNSVKGIHFCHDLVSLCNFHNYDNLRHFAKKLDPRREGGDQRHSFGPLDYESLQQELALKDTVWKKVSPESSDDTSTTVVYRMESLGERS
modifications: Mouse GAC with F327W substitution
Km [8]: 15 ± 1.7 mM
Vmax [8]: 435 ± 19 µmol/min
